{
  "source": "patent US8715628B1",
  "about": "“Cosmetic compositions and methods for inhibiting or reducing trypsin activity” (The Procter & Gamble Company, priority 2011, dated 2014)",
  "molecular_target": "T1, Trypsin from a bovine pancreas (Bos taurus, UniProt P00760)",
  "T1 construct": "Trypsin from a bovine pancreas; purchased Sigma-Aldrich T8802; host or cells: bovine pancreas (tissue-derived)",
  "T1 sequence (P00760 24-246)": "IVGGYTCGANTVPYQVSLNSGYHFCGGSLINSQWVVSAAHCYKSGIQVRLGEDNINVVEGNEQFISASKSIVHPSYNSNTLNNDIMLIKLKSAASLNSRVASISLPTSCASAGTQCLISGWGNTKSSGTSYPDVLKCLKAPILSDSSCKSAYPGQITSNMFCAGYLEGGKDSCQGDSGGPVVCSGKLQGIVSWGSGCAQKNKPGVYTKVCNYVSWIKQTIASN",
  "assay": "Trypsin assay (fluorogenic substrate Z-Phe-Arg-7-amido-4-methylcoumarin, kinetic slope vs vehicle control)",
  "type": "biochemical",
  "conditions": "single-well values, n=8 wells",
  "protocol": "Trypsin from a bovine pancreas (available from Sigma-Aldrich, USA, Catalog #T8802) is diluted in phosphate buffered saline (PBS) to make a stock of about 0.001% trypsin. In a 96 well white plate with clear bottom (e.g., Corning Costar #3904 available from _VWR International, LLC, Pennsylvania, USA), about 90 uL of 0.001% trypsin stock is mixed with about 10 uL of a test compound (e.g., N-undecylenoyl-L-phenylalanine) or vehicle control, such as dimethyl sulfoxide (DMSO) or water. Typically, there are 8 control wells per plate. The assay is initiated by the addition of 100 uL of the substrate, Z-Phe-Arg-7-amido-4-methylcoumarin (e.g., Calbiochem Catalog #03-32-1501-10 mM in PBS available from Life Technologies, California, USA) and the well plate is monitored in a fluorescent plate reader (e.g., a Gemini plate reader) with an excitation wavelength of 360 nm and an emission wavelength of 460 nm. The reaction progress is measured in a kinetic mode for 5 minutes. SoftMaxPro Data Analysis Software (available from Molecular Devices, Inc.) is used to fit a line to the data points for each well, and the slopes of the lines are then calculated. The slopes of each test compound well are compared to the average of the slopes of the vehicle control wells of a plate to determine the percentage of trypsin activity using equation (1) below. As the trypsin hydrolyzes the substrate, the fluorescence of the 7-amido-coumarin group increases, causing a growth in the signal which reflects the level of trypsin activity. An inhibitor attenuates the fluorescence growth resulting in a smaller slope. Percent(%)trypsin activity=[slope of test well]/[average slope of vehicle control wells] (1)\nUsing generally the method outlined above, the percentage of trypsin activity was measured for 1:900 dilution of 1% N-undecylenoyl-L-phenylalanine, 3% myo-inositol, 5% niacinamide, and 5% hexyldecanol using a sample size of n=8 wells for each compound. […]",
  "note": "“And” between values parts separate entries of the source, which are not always exact repeats. Equal values may be shown once.",
  "data": [
    {"molecule": "CCCCCCCCC(CO)CCCCCC", "note": "(stereo not shown) [Hexyldecanol, 2-Hexyldecan-1-ol]", "values": [
      {"measurement": "% Activity (percentage of trypsin activity)", "setting": "1:900 dilution of 5% hexyldecanol", "result": "87.1% and 90.7% and 85.7% and 100.0% and 112.4% and 112.0% and 88.7% and 95.4%"}
    ]},
    {"molecule": "O[C@H]1[C@H](O)[C@@H](O)[C@H](O)[C@@H](O)[C@H]1O", "note": "[Myo-Inositol, myo-inositol]", "values": [
      {"measurement": "% Activity (percentage of trypsin activity)", "setting": "1:900 dilution of 3% myo-inositol", "result": "93.8% and 112.4% and 101.4% and 108.9% and 108.0% and 121.4% and 95.6% and 109.2%"}
    ]},
    {"molecule": "C=CCCCCCCCCC(=O)N[C@@H](Cc1ccccc1)C(=O)O", "note": "[N-undecylenoyl-L-phenylalanine]", "values": [
      {"measurement": "% Activity (percentage of trypsin activity)", "setting": "1:900 dilution of 1% N-undecylenoyl-L-phenylalanine, >100% up-regulation, <100% inhibition", "result": "91.4% and 104.9% and 97.2% and 100.5% and 121.8% and 116.3% and 79.9% and 99.8%"}
    ]},
    {"molecule": "NC(=O)c1cccnc1", "note": "[Niacinamide, niacinamide]", "values": [
      {"measurement": "% Activity (percentage of trypsin activity)", "setting": "1:900 dilution of 5% niacinamide", "result": "106.0% and 91.8% and 91.3% and 107.7% and 111.1% and 109.1% and 93.9% and 88.7%"}
    ]}
  ]
}
